Data reported in the supplement of paper PMC10307832.

Key:
Assay in all cases: relative viability (nuclei count vs DMSO), 5 days (fraction); higher = more cells survive
[1] = compound: C1CSC2=C(C(=O)N1)SC3=C2C=C(C=C3)O [kb NB 142-70] + CS(=O)(=O)N1CCN(Cc2cc3nc(-c4cccc5[nH]ncc45)nc(N4CCOCC4)c3s2)CC1 [Pictilisib] (partner 1 µM)
Procedure, shortened: (§1)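 Relative viability equals treated-well nuclei counts divided by vehicle-well nuclei counts. Counts came from 4× images of lung cancer cell lines grown in 1536-well plates for 5 days after pin-tool dosing on the day after seeding. Dosing used one drug alone or a fixed anchor-drug dose plus five library-drug doses (not always all listed) in √10 steps, and values are medians of duplicate plates.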

[2] = compound: C1CSC2=C(C(=O)N1)SC3=C2C=C(C=C3)O [kb NB 142-70] + O=C(CCCCCCC(=O)Nc1ccccc1)NO [Vorinostat] (partner 1 µM)
Procedure, shortened: as §1

[3] = compound: NCC(=O)Nc1ccc(-n2nc(C(F)(F)F)cc2-c2ccc3c(ccc4ccccc43)c2)cc1 + CC(=O)Nc1cccc(-n2c(=O)n(C3CC3)c(=O)c3c(Nc4ccc(I)cc4F)n(C)c(=O)c(C)c32)c1 [Trametinib] (partner 0.02 µM)
Procedure, shortened: as §1

[4] = compound: NCC(=O)Nc1ccc(-n2nc(C(F)(F)F)cc2-c2ccc3c(ccc4ccccc43)c2)cc1 + NC(=O)Nc1cc(-c2cccc(F)c2)sc1C(=O)N[C@H]1CCCNC1 [AZD7762] (partner 0.2 µM)
Procedure, shortened: as §1

EPLC-272H was tested, and the relative viability ([1]; first compound 0.1 µM) was 0.349, the relative viability ([1]; first compound 1 µM) was 0.325 and the relative viability ([1]; first compound 3.162 µM) was 0.237. It also gave a relative viability ([2]; first compound 0.1 µM) of 0.597, a relative viability ([2]; first compound 1 µM) of 0.273 and a relative viability ([2]; first compound 3.162 µM) of 0.155. The relative viability ([3]; first compound 0.02 µM) was 0.269, the relative viability ([3]; first compound 0.06325 µM) was 0.297 and the relative viability ([3]; first compound 0.2 µM) was 0.305. The relative viability ([3]; first compound 0.6325 µM) was 0.299, the relative viability ([3]; first compound 2 µM) was 0.303 and the relative viability ([4]; first compound 0.02 µM) was 0.362. The relative viability ([4]; first compound 0.06325 µM) was 0.208, the relative viability ([4]; first compound 0.2 µM) was 0.196 and the relative viability ([4]; first compound 0.6325 µM) was 0.167. It also gave a relative viability ([4]; first compound 2 µM) of 0.149.
With H3255 the relative viability ([1]; first compound 0.1 µM) was 0.469, the relative viability ([1]; first compound 1 µM) was 0.45 and the relative viability ([1]; first compound 3.162 µM) was 0.437. It also gave a relative viability ([2]; first compound 0.1 µM) of 0.973, a relative viability ([2]; first compound 1 µM) of 0.864 and a relative viability ([2]; first compound 3.162 µM) of 0.842. It also gave a relative viability ([3]; first compound 0.02 µM) of 0.642, a relative viability ([3]; first compound 0.06325 µM) of 0.579 and a relative viability ([3]; first compound 0.2 µM) of 0.592. The relative viability ([3]; first compound 0.6325 µM) was 0.629, the relative viability ([3]; first compound 2 µM) was 0.674 and the relative viability ([4]; first compound 0.02 µM) was 0.853. It also gave a relative viability ([4]; first compound 0.06325 µM) of 0.914, a relative viability ([4]; first compound 0.2 µM) of 0.959 and a relative viability ([4]; first compound 0.6325 µM) of 0.974. The relative viability ([4]; first compound 2 µM) was 0.898.
HARA showed a relative viability ([1]; first compound 0.1 µM) of 0.476, a relative viability ([1]; first compound 1 µM) of 0.372 and a relative viability ([1]; first compound 3.162 µM) of 0.381. It also gave a relative viability ([2]; first compound 0.1 µM) of 0.449, a relative viability ([2]; first compound 1 µM) of 0.438 and a relative viability ([2]; first compound 3.162 µM) of 0.563. The relative viability ([3]; first compound 0.02 µM) was 0.792, the relative viability ([3]; first compound 0.06325 µM) was 0.771 and the relative viability ([3]; first compound 0.2 µM) was 0.586. The relative viability ([3]; first compound 0.6325 µM) was 0.659, the relative viability ([3]; first compound 2 µM) was 0.919 and the relative viability ([4]; first compound 0.02 µM) was 0.227. For the same cell line, the relative viability ([4]; first compound 0.06325 µM) was 0.429, the relative viability ([4]; first compound 0.2 µM) was 0.304 and the relative viability ([4]; first compound 0.6325 µM) was 0.392. It also gave a relative viability ([4]; first compound 2 µM) of 0.473.
HCC-15 was tested, and the relative viability ([1]; first compound 0.1 µM) was 0.746, the relative viability ([1]; first compound 1 µM) was 0.79 and the relative viability ([1]; first compound 3.162 µM) was 0.56. It also gave a relative viability ([2]; first compound 0.1 µM) of 0.812, a relative viability ([2]; first compound 1 µM) of 0.816 and a relative viability ([2]; first compound 3.162 µM) of 0.801. It also gave a relative viability ([3]; first compound 0.02 µM) of 0.386, a relative viability ([3]; first compound 0.06325 µM) of 0.416 and a relative viability ([3]; first compound 0.2 µM) of 0.447. It also gave a relative viability ([3]; first compound 0.6325 µM) of 0.369, a relative viability ([3]; first compound 2 µM) of 0.363 and a relative viability ([4]; first compound 0.02 µM) of 1.28. For the same cell line, the relative viability ([4]; first compound 0.06325 µM) was 1.13, the relative viability ([4]; first compound 0.2 µM) was 1.21 and the relative viability ([4]; first compound 0.6325 µM) was 1.36. The relative viability ([4]; first compound 2 µM) was 1.06.
With HCC-44 the relative viability ([1]; first compound 0.1 µM) was 0.566, the relative viability ([1]; first compound 1 µM) was 0.622 and the relative viability ([1]; first compound 3.162 µM) was 0.646. For the same cell line, the relative viability ([2]; first compound 0.1 µM) was 1.09, the relative viability ([2]; first compound 1 µM) was 1.14 and the relative viability ([2]; first compound 3.162 µM) was 1.21. For the same cell line, the relative viability ([3]; first compound 0.02 µM) was 0.792, the relative viability ([3]; first compound 0.06325 µM) was 1.1 and the relative viability ([3]; first compound 0.2 µM) was 1.05. For the same cell line, the relative viability ([3]; first compound 0.6325 µM) was 1.11, the relative viability ([3]; first compound 2 µM) was 1.02 and the relative viability ([4]; first compound 0.02 µM) was 1. For the same cell line, the relative viability ([4]; first compound 0.06325 µM) was 1.05, the relative viability ([4]; first compound 0.2 µM) was 0.997 and the relative viability ([4]; first compound 0.6325 µM) was 1.01. It also gave a relative viability ([4]; first compound 2 µM) of 1.03.
In the case of HCC-78, the relative viability ([1]; first compound 0.1 µM) is reported as 0.213, the relative viability ([1]; first compound 1 µM) is reported as 0.216 and the relative viability ([1]; first compound 3.162 µM) is reported as 0.181. The relative viability ([2]; first compound 0.1 µM) was 0.407, the relative viability ([2]; first compound 1 µM) was 0.602 and the relative viability ([2]; first compound 3.162 µM) was 0.483. It also gave a relative viability ([3]; first compound 0.02 µM) of 0.755, a relative viability ([3]; first compound 0.06325 µM) of 0.807 and a relative viability ([3]; first compound 0.2 µM) of 0.804. The relative viability ([3]; first compound 0.6325 µM) was 0.788, the relative viability ([3]; first compound 2 µM) was 0.705 and the relative viability ([4]; first compound 0.02 µM) was 0.77. For the same cell line, the relative viability ([4]; first compound 0.06325 µM) was 0.597, the relative viability ([4]; first compound 0.2 µM) was 0.599 and the relative viability ([4]; first compound 0.6325 µM) was 0.668. It also gave a relative viability ([4]; first compound 2 µM) of 0.642.
HCC-366 showed a relative viability ([1]; first compound 0.1 µM) of 0.13, a relative viability ([1]; first compound 1 µM) of 0.127 and a relative viability ([1]; first compound 3.162 µM) of 0.092. It also gave a relative viability ([2]; first compound 0.1 µM) of 0.473, a relative viability ([2]; first compound 1 µM) of 0.372 and a relative viability ([2]; first compound 3.162 µM) of 0.231. The relative viability ([3]; first compound 0.02 µM) was 0.361, the relative viability ([3]; first compound 0.06325 µM) was 0.408 and the relative viability ([3]; first compound 0.2 µM) was 0.467. For the same cell line, the relative viability ([3]; first compound 0.6325 µM) was 0.354, the relative viability ([3]; first compound 2 µM) was 0.271 and the relative viability ([4]; first compound 0.02 µM) was 0.236. For the same cell line, the relative viability ([4]; first compound 0.06325 µM) was 0.205, the relative viability ([4]; first compound 0.2 µM) was 0.31 and the relative viability ([4]; first compound 0.6325 µM) was 0.276. The relative viability ([4]; first compound 2 µM) was 0.333.
Cell Line HCC-827 has a relative viability ([1]; first compound 0.1 µM) of 0.832, a relative viability ([1]; first compound 1 µM) of 1.13 and a relative viability ([1]; first compound 3.162 µM) of 0.781. It also gave a relative viability ([2]; first compound 0.1 µM) of 0.763, a relative viability ([2]; first compound 1 µM) of 0.864 and a relative viability ([2]; first compound 3.162 µM) of 0.88. The relative viability ([3]; first compound 0.02 µM) was 0.572, the relative viability ([3]; first compound 0.06325 µM) was 0.584 and the relative viability ([3]; first compound 0.2 µM) was 0.58. For the same cell line, the relative viability ([3]; first compound 0.6325 µM) was 0.553, the relative viability ([3]; first compound 2 µM) was 0.521 and the relative viability ([4]; first compound 0.02 µM) was 0.213. For the same cell line, the relative viability ([4]; first compound 0.06325 µM) was 0.189, the relative viability ([4]; first compound 0.2 µM) was 0.245 and the relative viability ([4]; first compound 0.6325 µM) was 0.316. The relative viability ([4]; first compound 2 µM) was 0.235.
HOP-62 gave a relative viability ([1]; first compound 0.1 µM) of 0.736, a relative viability ([1]; first compound 1 µM) of 0.606 and a relative viability ([1]; first compound 3.162 µM) of 0.73. For the same cell line, the relative viability ([2]; first compound 0.1 µM) was 0.69, the relative viability ([2]; first compound 1 µM) was 0.713 and the relative viability ([2]; first compound 3.162 µM) was 0.579. The relative viability ([3]; first compound 0.02 µM) was 0.395, the relative viability ([3]; first compound 0.06325 µM) was 0.378 and the relative viability ([3]; first compound 0.2 µM) was 0.378. It also gave a relative viability ([3]; first compound 0.6325 µM) of 0.368, a relative viability ([3]; first compound 2 µM) of 0.336 and a relative viability ([4]; first compound 0.02 µM) of 0.646. For the same cell line, the relative viability ([4]; first compound 0.06325 µM) was 0.482, the relative viability ([4]; first compound 0.2 µM) was 0.693 and the relative viability ([4]; first compound 0.6325 µM) was 0.566. It also gave a relative viability ([4]; first compound 2 µM) of 0.711.
For IA-LM, the relative viability ([1]; first compound 0.1 µM) was 0.412, the relative viability ([1]; first compound 1 µM) was 0.529 and the relative viability ([1]; first compound 3.162 µM) was 0.51. It also gave a relative viability ([2]; first compound 0.1 µM) of 0.957, a relative viability ([2]; first compound 1 µM) of 0.994 and a relative viability ([2]; first compound 3.162 µM) of 1.16.
LC-2-ad showed a relative viability ([1]; first compound 0.1 µM) of 0.508, a relative viability ([1]; first compound 1 µM) of 0.545 and a relative viability ([1]; first compound 3.162 µM) of 0.311. For the same cell line, the relative viability ([2]; first compound 0.1 µM) was 0.726, the relative viability ([2]; first compound 1 µM) was 0.698 and the relative viability ([2]; first compound 3.162 µM) was 0.71. The relative viability ([3]; first compound 0.02 µM) was 0.952, the relative viability ([3]; first compound 0.06325 µM) was 0.971 and the relative viability ([3]; first compound 0.2 µM) was 0.951. It also gave a relative viability ([3]; first compound 0.6325 µM) of 0.95, a relative viability ([3]; first compound 2 µM) of 0.935 and a relative viability ([4]; first compound 0.02 µM) of 1.09. For the same cell line, the relative viability ([4]; first compound 0.06325 µM) was 0.875, the relative viability ([4]; first compound 0.2 µM) was 0.772 and the relative viability ([4]; first compound 0.6325 µM) was 0.849. It also gave a relative viability ([4]; first compound 2 µM) of 0.886.
